IC50 data for five compounds are collected here from US8063040B2, “Triazabenzo[E]azulene derivatives for the treatment of tumors” (Merck Patent Gesellschaft Mit Beschrankter Haftung, priority 2006, dated 2011).

The subject of this assay is TGF-beta. The assay can be described thus: Elimination of TGF-beta-mediated growth inhibition in Mv1Lu cells (Crystal Violet staining). In kind it is cell-based. The settings on record: lung epithelial cell line Mv1Lu, 1 ng/ml TGF-beta, 0.5% FCS, two days, absorption at 550 nm. The procedure: In-vitro (Enzyme) Assay for Determination of the Efficacy of the Inhibitors of the Inhibition of TGF-Beta-Mediated Effects
As an example, the ability of the inhibitors to eliminate TGF-beta-mediated growth inhibition is tested.
Cells of the lung epithelial cell line Mv1Lu are sown in a defined cell density in a 96-well microtitre plate and cultivated overnight under standard conditions. Next day, the medium is replaced by medium which comprises 0.5% of FCS and 1 ng/ml of TGF-beta, and the test substances are added in defined concentrations, generally in the form of dilution series with 5-fold steps. The concentration of the solvent DMSO is constant at 0.5%. After a further two days, Crystal Violet staining of the cells is carried out. After extraction of the Crystal Violet from the fixed cells, the absorption is measured spectrophotometrically at 550 nm. It can be used as a quantitative measure of the adherent cells present and thus of the cell proliferation during the culture.

The structures appear in SMILES notation. Structures can show the parent of a compound that is named as a salt.

Take `COc1ccc2c(c1)CCC(C)c1nnc(-c3cccc(C)n3)n1-2` (centres unmarked) [Compound A1, 8-methoxy-4-methyl-1-(6-methylpyridin-2-yl)-5,6-dihydro-4H-2,3,10b-triazabenz[e]azulene]: the IC50 (Mv1Lu, 48 h) was 3.9 µM. Consider `Cc1cccc(-c2nnc3n2-c2ccc(O)cc2CCC3C)n1` (centres unmarked) [Compound A2, 8-hydroxy-4-methyl-1-(6-methylpyridin-2-yl)-5,6-dihydro-4H-2,3,10b-triazabenzo[e]azulene], for which the IC50 was determined as 0.2 µM. Where the note is “Mv1Lu, 48 h”, `Cc1cccc(-c2nnc3n2-c2ccc(Cl)cc2C(C)CC3)n1` (centres unmarked) [Compound A4, 8-chloro-6-methyl-1-(6-methylpyridin-2-yl)-5,6-dihydro-4H-2,3,10b-triazabenzo[e]azulene] gave an IC50 of 9.9 µM. The same measure, in the same setting: under `COc1ccc2c(c1)C(C)CCc1nnc(-c3cccc(C)n3)n1-2` (centres unmarked) [Compound A18, 8-Methoxy-6-methyl-1-(6-methylpyridin-2-yl)-5,6-dihydro-4H-2,3,10b-triazabenzo[e]azulene, trifluoroacetate] stands 3.3 µM. The compound `Cc1cccc(-c2nnc3n2-c2ccc(O)cc2CCC3C)n1` (centres unmarked) [Compound A19, 8-Hydroxy-4-methyl-1-(6-methylpyridin-2-yl)-5,6-dihydro-4H-2,3,10b-triazabenzo[e]azulene] returned an IC50 of 2.5 µM.
